{"source": "patent US20070023364A1", "about": "“Tetrasilver Tetraoxide as Disinfective Agent for Cryptosporidium” (priority 2005, published 2007)", "key": {"Cryptosporidium": {"test_system": "Cryptosporidium", "conditions": "ozone-exposed Cryptosporidium, accepted by USEPA; cited from earlier work"}, "[1]": {"conditions": "activated tetrasilver tetraoxide; cited from earlier work"}, "avian species": {"test_system": "avian species", "conditions": "USEPA scientific findings; cited from earlier work"}, "[2]": {"test_system": "Cryptosporidium parvum oocysts", "method": "Disinfection was assessed using cell culture infectivity as the test, this procedure being more definitive than excystation. […] The 90% inactivation is a Log10 reduction of 1.0.\nInfectivity in cell cultures was used in this study. Although excystation is an acceptable way to assay for live sporozoites, infectivity in cell cultures is a definitive assay generally accepted by the scientific community for assessing Cryptosporidium oocyst viability/non-viability. This assay is virtually equivalent to using living mammals to confirm infectious organisms, but it provides better quantitation of viable/infectious organisms."}, "aquatic species": {"test_system": "aquatic species", "conditions": "USEPA scientific findings; cited from earlier work"}, "[3]": {"test_system": "Cryptosporidium parvum oocysts", "text": "Excystation, i.e., the release of sporozoites from the oocysts, was used to assess viability of the Cryptosporidium samples. COREXIT is 2-butoxyethanol (ethyleneglycol monobutyl ether), butyl cellosolve, butyl glycol, glycol ether eb. Other ethers similar to ethyleneglycol monobutyl ether may be used. This dispersant is composed of about 48% nonionic surfactants, including ethoxylated sorbitan mono- and trioleates (Tween 80 and Tween 85) and sorbitan monooleate (Span 80), about 35% anionic surfactants, including sodium dioctyl sulfosuccinate (AOT), and about 17% ethylene glycol monobutyl ether as a solvent EMULPHOR is an emulsifier derivative of corn oil. EMULPHOR may also be used rather than ALKAMUS. ALKAMUS is a polyethoxylated castor oil 40 mole ethoxlate. EMULPHOR from BASF, is a high molecular weight ether sulphate.", "remark": "listed apart in the source"}, "E. coli": {"test_system": "E. coli", "conditions": "activated TTO, kill within 10 min or less; cited from earlier work"}, "[4]": {"test_system": "Escherichia coli, Enterococcus faecalis and Pseudomonas aeruginosa", "assay": "Iodine disinfection of waterborne bacterial pathogens", "format": "cell-based", "conditions": "5 ppm iodine", "experimental": "(§1) Test studies confirmed these observations using doses of 5 and 15 ppm of iodine against three waterborne pathogens (Escherichia coli, Enterococcus faecalis and Pseudomonas aeruginosa). […] Unfortunately, experiments using iodine even up to 100 ppm (saturation level) were ineffective in killing Cryptosporidium oocysts when exposed for 30 and 60 min. periods, respectively."}, "Cryptosporidium oocysts": {"test_system": "Cryptosporidium oocysts", "assay": "Iodine exposure of Cryptosporidium oocysts (killing)", "format": "cell-based", "conditions": "iodine up to 100 ppm (saturation level), 30 and 60 min exposure", "experimental": "as §1"}, "[5]": {"conditions": "3 mg/L TTO, 15 mg/L persulfate, 1% cocktail, 60 min"}, "[6]": {"conditions": "2 and 3 mg/L activated TTO, irrespective of cocktail used"}, "[7]": {"conditions": "activated 2 mg/L TTO in 1.0% cocktail, 60 min (study with 2, 5, 10 mg/L)"}, "[8]": {"conditions": "2 ppm tetrasilver tetraoxide and 10 ppm potassium monopersulfate, excystation"}}, "note": "Where “and” joins values, the source holds several entries; their conditions need not be identical. Equal values may be shown once. Read-outs that look alike come from different tables or passages of the source."}
{"compound": "O=[O+][O-]", "note": "[ozone]", "values": [{"measurement": "Log10 reduction", "setting": "Cryptosporidium", "result": 2.0, "unit": "Log 10"}]}
{"compound": "[Ag+].[Ag+].[Ag+].[Ag+].[O-2].[O-2].[O-2].[O-2]", "note": "[tetrasilver tetraoxide]", "values": [{"measurement": "mutagenicity", "setting": "[1]", "result": "not mutagenic"}, {"measurement": "toxicity to avian species", "setting": "avian species", "result": "practically non-toxic"}, {"measurement": "Average Infectious Oocysts × 100,000", "setting": "[2]; 1 mg/L TTO", "result": "68 × 100,000"}, {"measurement": "Average Log10 Reduction of Viable Oocysts (Inactivation)", "setting": "[2]; 1 mg/L TTO", "result": 0.23, "unit": "Log10"}, {"measurement": "Average Percent Oocyst Inactivation of all Variables", "setting": "[2]; 1 mg/L TTO", "result": 32.0, "unit": "%"}, {"measurement": "Log10 reduction", "setting": "[2]; 1 mg/L TTO, 0% cocktail, 60 min", "result": 0.6, "unit": "Log10"}, {"measurement": "inactivation", "setting": "[2]; 1 mg/L TTO, 0% cocktail, 60 min, 1.2×10^7 oocysts/50 mL", "result": 75, "unit": "%"}, {"measurement": "Infectious Oocysts × 100,000 using 1% Cocktail", "setting": "[2]; 1 mg/L TTO, 5 mg/L persulfate, 1% cocktail", "result": "100 × 100,000"}, {"measurement": "Average Infectious Oocysts × 100,000", "setting": "[2]; 2 mg/L TTO", "result": "35 × 100,000"}, {"measurement": "Average Log10 Reduction of Viable Oocysts (Inactivation)", "setting": "[2]; 2 mg/L TTO", "result": 0.83, "unit": "Log10"}, {"measurement": "Average Percent Oocyst Inactivation of all Variables", "setting": "[2]; 2 mg/L TTO", "result": 65.0, "unit": "%"}, {"measurement": "Infectious Oocytes × 100,000 using 0% Cocktail", "setting": "[2]; 2 mg/L TTO, 10 mg/L persulfate, 0% cocktail", "result": "2 × 100,000"}, {"measurement": "Log10 reduction", "setting": "[2]; 2 mg/L TTO, 10 mg/L persulfate, 0% cocktail, 60 min", "result": 1.8, "unit": "Log10"}, {"measurement": "Infectious Oocysts × 100,000 using 1% Cocktail", "setting": "[2]; 2 mg/L TTO, 10 mg/L persulfate, 1% cocktail", "result": "35 × 100,000"}, {"measurement": "Average Infectious Oocysts × 100,000", "setting": "[2]; 3 mg/L TTO", "result": "13 × 100,000"}, {"measurement": "Average Log10 Reduction of Viable Oocysts (Inactivation)", "setting": "[2]; 3 mg/L TTO", "result": 1.2, "unit": "Log10"}, {"measurement": "Average Percent Oocyst Inactivation of all Variables", "setting": "[2]; 3 mg/L TTO", "result": 87.0, "unit": "%"}, {"measurement": "Log10 reduction", "setting": "[2]; 3 mg/L TTO, 0% cocktail, 60 min", "result": 1.3, "unit": "Log10"}, {"measurement": "Infectious Oocysts × 100,000 using 1% Cocktail", "setting": "[2]; 3 mg/L TTO, 15 mg/L persulfate, 1% cocktail", "result": "2 × 100,000"}, {"measurement": "Log10 oocyst reduction", "setting": "[2]; [5]", "result": 1.8, "unit": "Log10"}, {"measurement": "inactivation / kill of oocysts", "setting": "[2]; [5]", "result": 98, "unit": "%"}, {"measurement": "effectiveness of inactivation with cocktail versus average inactivation of infectious oocysts", "setting": "[2]; 3 mg/L TTO, cocktail present", "result": 6.5, "unit": "times"}, {"measurement": "Log10 reduction", "setting": "[2]; [6]", "result": 1.8, "unit": "Log10"}, {"measurement": "kill of oocysts", "setting": "[2]; [6]", "result": 98, "unit": "%"}, {"measurement": "Log10 reduction", "setting": "[2]; [7]", "result": 1.0, "unit": "Log10"}, {"measurement": "oocyst inactivation relative to stock oocyst control", "setting": "[2]; [7]", "result": 90, "unit": "%"}, {"measurement": "inactivation", "setting": "[2]; cocktail concentration raised to 2%, 60 min", "result": "Lesser, but significant inactivations"}, {"measurement": "Log10 reduction/inactivation", "setting": "[2]; other test matrices (2, 5, 10 mg/L, with and without 1% cocktail), 60 min", "result": "less than a one Log10 reduction/inactivation"}, {"measurement": "toxicity to aquatic species", "setting": "aquatic species", "result": "toxic"}, {"measurement": "inactivation of oocysts", "setting": "[3]; 1% cocktail, 3 hours, 1×10^3 oocysts in 50 ml HMEM", "result": 19.4, "unit": "%"}, {"measurement": "viable oocysts by excystation", "setting": "[3]; 2 ppm tetrasilver tetraoxide and 10 ppm potassium monopersulfate", "result": "1.2+/−1.1%"}, {"measurement": "kill", "setting": "[3]; [8]", "result": 98.8, "unit": "%"}, {"measurement": "log10 reduction in infectious Cryptosporidium parvum", "setting": "[3]; [8]", "result": "2 log10 and 2.0 log10"}, {"measurement": "concentration that kills the organisms", "setting": "E. coli", "result": "1-2 ppm"}]}
{"compound": "II", "note": "[iodine]", "values": [{"measurement": "log10 reduction", "setting": "[4]; within 5 min", "result": 6, "unit": "log10"}, {"measurement": "log10 inactivation", "setting": "[4]; within 10 min of exposure", "result": "≤ 8", "unit": "log10"}, {"measurement": "inactivation of oocysts", "setting": "[3]; saturated iodine solution with 1% cocktail of COREXIT and ALKAMUS EL 620, 3 hours", "result": "ineffective"}, {"measurement": "killing of Cryptosporidium oocysts", "setting": "Cryptosporidium oocysts", "result": "ineffective"}]}
